Key:
[1] = tested on: Plutella xylostella; assay: whole plant or invertebrate; conditions: in Brassica rapa, 144 h, read-out: activity level (corrected mortality rate) of P. xylostella
[2] = tested on: Laodelphax striatellus; assay: Insecticidal test on Laodelphax striatellus (rice seedling dip); conditions: in Oryza sativa, 192 h, read-out: activity level (corrected mortality rate) of L. striatellus
[3] = tested on: Haemonchus contortus; assay: Larval motility assay on Haemonchus contortus; assay type: in vivo; conditions: 96 h, 4 days, relative to DMSO only, read-out: percent motility inhibition, H. contortus L1 stage larvae
Description: Larval motility assay on Haemonchus contortus DMSO diluted solutions of various compounds of the present invention were added at the final concentration of 50 ppm to the wells of a 96-well plate containing a predetermined conditioned medium. Twenty L1 stage larvae of H. contortus were introduced into each well of the 96-well plate. The plate was allowed to stand for 4 days, and then larval motility was examined. The percent motility inhibition in the wells of each treatment was calculated relative to the wells of treatment with DMSO only.

[4] = tested on: Dirofilaria immitis; assay: Larval motility assay on Dirofilaria immitis; assay type: in vivo; conditions: 72 h, 3 days, relative to DMSO only, read-out: percent motility inhibition, D. immitis L1 stage larvae
Description: Larval Motility Assay on Dirofilaria immitis
Five hundred L1 stage larvae of D. immitis were diluted in a predetermined conditioned medium and introduced into each well of a 96-well plate. DMSO diluted solutions of various compounds of the present invention were added at the final concentration of 50 ppm to the wells of the 96-well plate. The plate was allowed to stand for 3 days, and then larval motility was examined. The percent motility inhibition in the wells of each treatment was calculated relative to the wells of treatment with DMSO only.

[5] = tested on: Ctenocephalides felis; assay: Assay for oral parasiticidal activity against adults of Ctenocephalides felis; assay type: in vivo; conditions: read-out: mortality rate, adults of C. felis
Description: Assay for Oral Parasiticidal Activity Against Adults of Ctenocephalides felis
Newly-emerged adults of C. felis were placed into test cages (10 adults per test cage). DMSO diluted solutions of various compounds of the present invention were added to aliquots of bovine blood at the final concentration of 50 ppm and orally administered to the adults of C. felis using a feeder. The mortality rate was examined on the following day. Aberrant adults were regarded as the dead.

[6] = tested on: Rhipicephalus sanguineus; assay: Assay for transdermal parasiticidal activity against nymphs of Rhipicephalus sanguineus; assay type: in vivo; conditions: 48 h, read-out: mortality rate, nymphs of R. sanguineus
Excerpt: Assay for Transdermal Parasiticidal Activity Against Nymphs of Rhipicephalus sanguineus
DMSO diluted solutions of various compounds of the present invention were individually diluted to the final concentration of 100 ppm with an acetone/triton solution and applied to the inside of vented sample bottles. After overnight drying, ten nymphs of R. sanguineus were introduced into each bottle, and the mortality rate was examined two days later. Aberrant adults were regarded as the dead.

Structure (SMILES)	mortality at 500 ppm [1] [%]	mortality at 500 ppm [2] [%]	inhibition at 50 ppm [3] [%]	inhibition at 50 ppm [4] [%]	mortality at 50 ppm [5] [%]	mortality at 100 ppm [6] [%]
CCSc1cc(C2CC2)cnc1-c1nc2cc3c(cc2n1C)OC(F)(F)O3 [Compound 1-1, 6-(5-cyclopropyl-3-ethylthiopyridin-2-yl)-2,2-difluoro-5-me thyl-5H-[1,3]dioxolo[4′,5′:4,5]benzo[1,2-d]imidazole]	100	100				
CCS(=O)(=O)c1cc(C2CC2)cnc1-c1nc2cc3c(cc2n1C)OC(F)(F)O3 [Compound 1-3, 6-(5-cyclopropyl-3-ethylsulfonyl-pyridin-2-yl)-2,2-difluoro-5-methyl-5H-[1,3]dioxolo[4′,5′:4,5]benzo[1,2-d]imidazole]	100	100	≥ 50	≥ 50	≥ 50	≥ 50
CCSc1cc(C2CC2)cnc1-c1nc2cc3c(cc2n1C(F)F)OC(F)(F)O3 [Compound 1-7, 6-(5-cyclopropyl-3-ethylthiopyridin-2-yl)-2,2-difluoro-5-di fluoromethyl-5H-[1,3]dioxolo[4′,5′:4,5]benzo[1,2-d]imidazole]	100					
CCS(=O)(=O)c1cc(C2CC2)cnc1-c1nc2cc3c(cc2n1C(F)F)OC(F)(F)O3 [Compound 1-9, 6-(5-cyclopropyl-3-ethylsulfonylpyridin-2-yl)-2,2-difluoro-5-difluoromethyl-5H-[1,3]dioxolo[4′,5′:4,5]benzo[1,2-d]imid azole]	100					
